In ChEMBL document CHEMBL1201862, “PubChem BioAssay data set” (2004):
Active and inactive are the calls of the source.

Assays:
[1] = target: T1, Dual specificity protein phosphatase 3 (Homo sapiens, UniProt P51452); experiment: VHR1 phosphatase inhibitors, primary screen, biochemical, absorbance, uHTS (AID 1654)
[2] = target: T1, Dual specificity protein phosphatase 3; experiment: VHR1 phosphatase inhibitors, biochemical (AID 1878)
[3] = target: T2, Dual specificity protein phosphatase 6 (Rattus norvegicus, UniProt Q64346); experiment: MKP-3 phosphatase inhibitors, primary screen, biochemical, rat enzyme, in vitro (AID 425)
T2 sequence (Q64346 whole entry): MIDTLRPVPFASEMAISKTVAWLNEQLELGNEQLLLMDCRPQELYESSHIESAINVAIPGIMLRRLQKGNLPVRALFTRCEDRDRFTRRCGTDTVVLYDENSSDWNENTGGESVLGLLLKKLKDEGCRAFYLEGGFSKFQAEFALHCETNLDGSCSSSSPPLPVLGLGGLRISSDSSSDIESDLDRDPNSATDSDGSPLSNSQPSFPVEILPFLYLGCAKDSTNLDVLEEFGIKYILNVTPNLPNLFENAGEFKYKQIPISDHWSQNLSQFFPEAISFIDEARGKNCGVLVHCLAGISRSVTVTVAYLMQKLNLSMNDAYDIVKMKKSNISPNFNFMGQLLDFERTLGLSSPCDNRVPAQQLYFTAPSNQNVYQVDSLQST

[4] = target: T3, Carboxy-terminal domain RNA polymerase II polypeptide A small phosphatase 1 (Homo sapiens, UniProt Q9GZU7); experiment: inhibitors of CTDSP1, concentration-response testing, biochemical assay, absorbance-based, actives from ultra-high-throughput screening (AID 540297); format: functional
T3 sequence (Q9GZU7 whole entry): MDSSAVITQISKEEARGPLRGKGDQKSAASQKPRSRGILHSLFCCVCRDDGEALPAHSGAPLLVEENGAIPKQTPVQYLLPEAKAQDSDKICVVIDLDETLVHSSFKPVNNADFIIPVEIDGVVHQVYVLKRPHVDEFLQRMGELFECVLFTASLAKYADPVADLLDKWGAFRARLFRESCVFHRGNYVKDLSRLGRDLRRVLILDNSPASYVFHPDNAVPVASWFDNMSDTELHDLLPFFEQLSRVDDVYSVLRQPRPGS

[5] = target: Low molecular weight phosphotyrosine protein phosphatase (Homo sapiens, UniProt P24666); format: functional; details: read-out: IC50_Mean
[6] = target: T4, G-protein coupled receptor 55 (Homo sapiens, UniProt Q9Y2T6); experiment: GPR55 antagonists blocking LPI-driven arrestin recruitment, primary screen, imaging, U2OS, beta-arrestin-GFP, LPI agonist (AID 2013); format: functional;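 also: antagonist potency measured as reduced agonist-driven arrestin aggregation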
Cannabinoid receptor 1 [7] = target: T5, Cannabinoid receptor 1 (Homo sapiens, UniProt P21554); experiment: SAR analysis of antagonists of the Cannabinoid Receptor 1 using an Image-Based Assay - Set 2. [Related pubchem assays (depositor defined):AID2013, AID2026]; format: functional
[8] = target: T6, G-protein coupled receptor 35 (Homo sapiens, UniProt Q9HC97); experiment: SAR analysis of Agonists of the GPR35 Receptor using an Image-Based Assay - Set 2. [Related pubchem assays (depositor defined):AID2013, AID2026]; format: functional
Cannabinoid receptor 2 [9] = target: T7, Cannabinoid receptor 2 (Homo sapiens, UniProt P34972); experiment: SAR analysis of antagonists of the Cannabinoid Receptor 2 using an Image-Based Assay. [Related pubchem assays (depositor defined):AID2013, AID2026]; format: functional
Cannabinoid receptor 1 [10] = target: T5, Cannabinoid receptor 1; experiment: SAR analysis of agonists of the Cannabinoid Receptor 1 using an Image-Based Assay - Set 2. [Related pubchem assays (depositor defined):AID2013, AID2026]; format: functional
[11] = target: T6, G-protein coupled receptor 35; experiment: SAR analysis of Antagonists of the GPR35 Receptor using an Image-Based Assay - Set 3. [Related pubchem assays (depositor defined):AID2013, AID2026]; format: functional
[12] = target: T4, G-protein coupled receptor 55; experiment: GPR55 antagonist potency of analogs, SAR follow-up, imaging, U2OS, beta-arrestin-GFP, LPI agonist, set 2 (AID 2820); format: functional
Cannabinoid receptor 2 [13] = target: T7, Cannabinoid receptor 2; experiment: SAR analysis of agonists of the Cannabinoid Receptor 2 using an Image-Based Assay. [Related pubchem assays (depositor defined):AID2013, AID2026]; format: functional
[14] = target: Intestinal-type alkaline phosphatase (Homo sapiens, UniProt P09923); experiment: activation of human intestinal alkaline phosphatase – biochemical, dose response (AID 488873); format: functional
[15] = target: Intestinal-type alkaline phosphatase (Mus musculus, UniProt P24822); experiment: PubChem AID 488785; format: functional
[16] = target: T8, Alkaline phosphatase, tissue-nonspecific isozyme (Homo sapiens, UniProt P05186); experiment: TNAP enzyme inhibition by screening hits, dose response, selectivity assay for mouse IAP inhibitor project, biochemical, human TNAP, uHTS hits (AID 488906); format: functional
T8 sequence (P05186 whole entry): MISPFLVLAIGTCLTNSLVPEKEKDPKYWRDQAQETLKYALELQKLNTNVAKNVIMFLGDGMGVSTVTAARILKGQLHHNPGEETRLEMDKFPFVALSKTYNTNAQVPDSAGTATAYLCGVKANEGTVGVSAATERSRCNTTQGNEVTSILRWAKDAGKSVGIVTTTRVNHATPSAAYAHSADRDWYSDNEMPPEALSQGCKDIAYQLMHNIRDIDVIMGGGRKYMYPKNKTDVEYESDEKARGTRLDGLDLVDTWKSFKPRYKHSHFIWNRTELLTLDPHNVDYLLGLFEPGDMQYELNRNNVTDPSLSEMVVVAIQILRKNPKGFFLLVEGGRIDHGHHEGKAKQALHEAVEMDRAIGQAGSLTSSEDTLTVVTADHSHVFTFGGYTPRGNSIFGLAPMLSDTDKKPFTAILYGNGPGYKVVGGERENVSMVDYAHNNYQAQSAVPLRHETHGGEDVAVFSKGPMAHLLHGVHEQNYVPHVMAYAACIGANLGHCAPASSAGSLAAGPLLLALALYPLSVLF

[17] = target: T9, Polyadenylate-binding protein 1 (Homo sapiens, UniProt P11940); experiment: PABP1 MLLE–PAM2 interaction inhibitors, dose response, miRNA deadenylation inhibitor project, biochemical, fluorescence polarization, Cy5-PAM2 peptide, secondary (AID 602260); format: functional; details: read-out: IC50_Mean
[18] = target: T9, Polyadenylate-binding protein 1; experiment: PABP1 MLLE–PAM2 binding inhibitor potency, dose response, biochemical, fluorescence polarization, FITC-PAM2 peptide (AID 602259); format: functional; details: read-out: IC50_Mean

T1 sequence (P51452 whole entry): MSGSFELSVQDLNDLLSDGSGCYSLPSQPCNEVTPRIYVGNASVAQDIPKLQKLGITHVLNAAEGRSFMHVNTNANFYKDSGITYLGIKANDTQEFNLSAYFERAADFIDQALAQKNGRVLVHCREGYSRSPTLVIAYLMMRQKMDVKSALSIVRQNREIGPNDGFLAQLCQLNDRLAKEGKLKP
T5 sequence (P21554 whole entry): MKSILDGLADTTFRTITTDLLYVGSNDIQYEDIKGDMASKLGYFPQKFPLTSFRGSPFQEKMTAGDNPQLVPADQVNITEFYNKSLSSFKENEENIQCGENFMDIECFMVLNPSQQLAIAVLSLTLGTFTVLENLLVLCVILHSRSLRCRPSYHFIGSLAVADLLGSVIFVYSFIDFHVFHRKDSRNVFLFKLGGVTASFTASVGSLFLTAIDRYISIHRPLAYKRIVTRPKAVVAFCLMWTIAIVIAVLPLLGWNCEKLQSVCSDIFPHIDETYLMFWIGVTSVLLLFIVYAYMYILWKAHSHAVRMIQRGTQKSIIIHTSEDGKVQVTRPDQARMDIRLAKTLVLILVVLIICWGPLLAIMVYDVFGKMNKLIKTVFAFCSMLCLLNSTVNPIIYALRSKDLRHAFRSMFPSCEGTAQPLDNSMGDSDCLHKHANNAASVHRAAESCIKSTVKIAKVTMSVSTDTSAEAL
T9 sequence (P11940 whole entry): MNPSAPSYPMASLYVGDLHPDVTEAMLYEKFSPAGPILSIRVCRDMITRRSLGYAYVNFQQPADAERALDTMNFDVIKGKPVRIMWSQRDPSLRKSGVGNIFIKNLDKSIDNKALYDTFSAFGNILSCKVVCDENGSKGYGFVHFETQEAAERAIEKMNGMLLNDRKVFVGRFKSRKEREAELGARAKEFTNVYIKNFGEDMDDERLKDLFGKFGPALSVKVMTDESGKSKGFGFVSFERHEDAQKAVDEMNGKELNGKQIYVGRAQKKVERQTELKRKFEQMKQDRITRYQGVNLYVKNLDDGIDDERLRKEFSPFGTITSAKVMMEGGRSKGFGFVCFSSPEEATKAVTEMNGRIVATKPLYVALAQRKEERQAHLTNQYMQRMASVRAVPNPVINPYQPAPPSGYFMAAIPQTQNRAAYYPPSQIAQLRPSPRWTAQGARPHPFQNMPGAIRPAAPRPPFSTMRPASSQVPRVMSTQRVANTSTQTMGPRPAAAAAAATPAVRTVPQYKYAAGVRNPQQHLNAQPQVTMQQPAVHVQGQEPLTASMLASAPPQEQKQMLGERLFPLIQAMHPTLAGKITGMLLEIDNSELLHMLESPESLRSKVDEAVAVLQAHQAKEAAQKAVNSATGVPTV
T6 sequence (Q9HC97 whole entry): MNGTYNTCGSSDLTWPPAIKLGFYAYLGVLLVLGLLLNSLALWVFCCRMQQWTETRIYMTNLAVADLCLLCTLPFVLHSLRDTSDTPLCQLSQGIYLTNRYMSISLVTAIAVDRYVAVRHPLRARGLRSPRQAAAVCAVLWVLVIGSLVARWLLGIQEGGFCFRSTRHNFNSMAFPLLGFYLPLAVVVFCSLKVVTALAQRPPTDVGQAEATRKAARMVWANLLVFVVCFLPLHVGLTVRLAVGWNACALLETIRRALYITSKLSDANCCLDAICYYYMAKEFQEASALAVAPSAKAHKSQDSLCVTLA
T4 sequence (Q9Y2T6 whole entry): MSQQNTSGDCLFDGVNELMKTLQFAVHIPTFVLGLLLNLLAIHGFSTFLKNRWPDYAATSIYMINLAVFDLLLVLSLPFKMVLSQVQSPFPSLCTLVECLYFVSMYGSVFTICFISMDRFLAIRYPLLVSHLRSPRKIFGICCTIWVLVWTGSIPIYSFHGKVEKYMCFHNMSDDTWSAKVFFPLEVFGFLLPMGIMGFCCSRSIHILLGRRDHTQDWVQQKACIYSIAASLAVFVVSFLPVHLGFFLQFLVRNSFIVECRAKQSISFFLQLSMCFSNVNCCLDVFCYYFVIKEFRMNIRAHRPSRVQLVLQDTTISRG
T7 sequence (P34972 whole entry): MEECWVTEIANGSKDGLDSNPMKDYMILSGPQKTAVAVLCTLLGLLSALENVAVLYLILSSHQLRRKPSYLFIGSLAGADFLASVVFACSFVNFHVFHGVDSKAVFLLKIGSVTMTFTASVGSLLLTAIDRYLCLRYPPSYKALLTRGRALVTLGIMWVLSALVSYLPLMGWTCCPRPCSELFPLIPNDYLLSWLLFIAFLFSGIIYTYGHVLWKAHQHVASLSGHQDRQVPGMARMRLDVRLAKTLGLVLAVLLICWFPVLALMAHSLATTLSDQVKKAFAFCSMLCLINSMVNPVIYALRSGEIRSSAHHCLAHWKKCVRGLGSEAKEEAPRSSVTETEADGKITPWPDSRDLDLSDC
Chain of Intestinal-type alkaline phosphatase (Homo sapiens, UniProt P09923) (P09923 whole entry): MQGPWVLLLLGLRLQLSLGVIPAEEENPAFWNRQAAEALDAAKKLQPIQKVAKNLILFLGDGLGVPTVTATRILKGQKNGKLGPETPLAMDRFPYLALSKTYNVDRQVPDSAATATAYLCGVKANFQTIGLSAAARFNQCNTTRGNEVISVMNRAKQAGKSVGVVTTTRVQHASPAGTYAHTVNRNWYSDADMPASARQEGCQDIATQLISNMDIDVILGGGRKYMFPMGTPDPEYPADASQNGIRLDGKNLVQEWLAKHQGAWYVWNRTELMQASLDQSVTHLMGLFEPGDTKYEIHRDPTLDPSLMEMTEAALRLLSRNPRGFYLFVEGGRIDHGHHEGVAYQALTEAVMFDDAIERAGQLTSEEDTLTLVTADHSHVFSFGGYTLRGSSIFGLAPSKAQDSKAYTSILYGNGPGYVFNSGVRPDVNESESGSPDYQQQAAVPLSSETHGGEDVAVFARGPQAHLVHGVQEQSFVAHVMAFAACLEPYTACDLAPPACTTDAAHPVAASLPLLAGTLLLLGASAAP
Chain of Low molecular weight phosphotyrosine protein phosphatase (P24666 whole entry): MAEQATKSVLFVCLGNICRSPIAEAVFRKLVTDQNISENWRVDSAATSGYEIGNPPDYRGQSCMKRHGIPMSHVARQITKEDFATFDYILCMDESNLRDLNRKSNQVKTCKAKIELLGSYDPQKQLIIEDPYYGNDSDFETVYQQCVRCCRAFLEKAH
Chain of Intestinal-type alkaline phosphatase (Mus musculus, UniProt P24822) (P24822 whole entry): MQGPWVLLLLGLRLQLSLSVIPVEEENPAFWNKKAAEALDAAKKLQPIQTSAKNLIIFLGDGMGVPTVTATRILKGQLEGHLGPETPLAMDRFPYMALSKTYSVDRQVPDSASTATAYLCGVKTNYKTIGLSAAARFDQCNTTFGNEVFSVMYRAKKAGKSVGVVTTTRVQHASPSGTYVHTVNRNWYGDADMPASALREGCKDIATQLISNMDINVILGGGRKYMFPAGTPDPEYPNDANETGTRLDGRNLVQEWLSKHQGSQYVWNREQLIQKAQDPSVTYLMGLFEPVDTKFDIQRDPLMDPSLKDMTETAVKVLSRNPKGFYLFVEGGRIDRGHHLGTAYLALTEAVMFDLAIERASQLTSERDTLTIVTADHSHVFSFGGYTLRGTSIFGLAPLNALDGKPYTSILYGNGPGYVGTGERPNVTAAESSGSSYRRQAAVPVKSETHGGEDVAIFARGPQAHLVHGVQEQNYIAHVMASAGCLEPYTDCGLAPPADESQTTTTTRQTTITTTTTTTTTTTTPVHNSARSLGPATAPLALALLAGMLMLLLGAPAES

Cc1ccc(-n2c(=O)c3cc4c(=O)n(-c5ccc(C)c(C)c5)c(=O)c4c(C(=O)c4ccc(C(=O)O)cc4)c3c2=O)cc1C
IC50 [1]: 3.39 µM (active) | IC50 [2]: 5.31 µM (active) | IC50 [3]: 18.9 µM (active) | IC50 [4]: 1.12 µM (active) | IC50 [5]: 3.13 µM (active)

COc1ccc(S(=O)(=O)Nc2ccc(F)cc2)cc1N(C)S(=O)(=O)c1ccc(Cl)cc1
IC50 [6]: 0.908 µM (active) | IC50 (Cannabinoid receptor 1 [7]): 6.63 µM (active) | EC50 [8]: > 32 µM (inactive) | IC50 (Cannabinoid receptor 2 [9]): > 32 µM (inactive) | EC50 (Cannabinoid receptor 1 [10]): > 32 µM (inactive) | IC50 [11]: > 32 µM (inactive) | IC50 [12]: 0.831 µM (active) | EC50 (Cannabinoid receptor 2 [13]): > 32 µM (inactive)

CCOC(=O)CN1C(=O)/C(=C2\SC(=S)N(NC(=O)c3cccnc3)C2=O)c2ccccc21
EC50 [14]: 25.5 µM (active) | IC50 [15]: 11.2 µM (active) | IC50 [16]: > 100 µM (inactive) | IC50 [17]: > 66 µM (inactive) | IC50 [18]: > 66 µM (inactive)
